# Results: article PMC9090415, “Discovery of small molecule inhibitors of Plasmodium falciparum apicoplast DNA polymerase” (Journal of Enzyme Inhibition and Medicinal Chemistry, 2022)
# Target: P. falciparum apicoplast DNA polymerase (Pf-apPOL) (Plasmodium falciparum, UniProt Q8ILY1)
# Assay: Fluorescence-based high-throughput DNA polymerase assay (molecular beacon), primary screen and dose-response
# Format: biochemical
# Conditions: for DNA Pol: 90 min, 10 µM; for IC50: supplemental file 2, sheet IC50 nontoxic compounds, Pf-apPOL
# Method: The HT assay employs a molecular beacon, a stem-loop DNA template with a Cy3 dye and the Black Hole Quencher on the 3′ and 5′ ends of the DNA, respectively. Pf-apPOL concentration is based on a calculated absorptivity of ε280 = 56750 M^−1 cm^−1. Reactions were carried out at 25 °C, using Corning 3575 […] (well-volume, 20 µL). Assays testing for compound inhibition composed of reaction buffer (pH 7.9 in 50 mM potassium acetate, 20 mM Tris-acetate and 10 mM magnesium acetate), Pf-apPOL (20 nM), DNA substrate (20 nM), dNTPs (6 µM), and compound (10 µM in DMSO). The DNA and nucleotide substrates (dNTPs) were at concentrations of 20 nM and 6 µM, respectively, in the assay. Pf-apPOL was incubated in the reaction buffer with dNTPs and the compound of interest (10 µM, in the assay) at 25 °C for 10 min. The DNA substrate was then added and the reaction was allowed to proceed for 90 min at 25 °C.
# Each assay plate contained 16 negative controls (no Pf-apPOL, DMSO present) and 16 positive controls (Pf-apPOL present, no DMSO). The fluorescence of each well was determined using a BioTek Synergy Neo fluorescence plate reader using excitation and emission wavelengths of 555 and 570 nm, respectively.
# In the above, Min is the average of fluorescence emission of the negative controls (substrate only), Max the average fluorescence emission from the positive controls (enzyme + substrate), and Test the emission from the assays in the presence of compounds (enzyme + compound + substrates). […] […] The IC50 of each compound was determined using Equation (2): (2) IC50= Vmax/(1+ (I/IC50)^n)
# In the above, n measures cooperativity, with n > 1 indicating synergistic binding of more than a single molecule of the compound.
# To identify apPOL inhibitors we utilised our previously developed high-throughput DNA polymerase assay. The HT assay is based on a molecular beacon DNA template that forms a stem-loop with a Cy3 dye and the Black Hole Quencher on the 3′ and 5′ ends of the DNA, respectively. DNA polymerase activity extends an annealed primer through the stem region, displacing the fluorophore from the quencher, thereby increasing its fluorescence (Figure 1(A)). The assay accurately recapitulates the kinetic behaviour of apPOL, as measured through more conventional low-throughput gel-based assays. The Z′ factor for the assay described here was 0.9 across all plates (data not shown).
# Figure 1. High-throughput screening. (A) The fluorescent-based DNA polymerase assay used to screen the compound libraries. The DNA template strand is a hairpin loop with a primer annealed to the loop. The 3’ end of the primer is 11 bases away from the 6 bp duplex. Strand displacement activity of the DNA polymerase separates the Cy3 dye from the Black hole quencher leading to an increase in fluorescent signal. (B) The high-throughput assay workflow. The DNA polymerase is incubated with […] compound for 10 min prior to addition of the hairpin substrate. The reaction is quenched at 3 different time points and the fluorescent signal is measured and % inhibition is determined using the provided equation.
# [1] = 'DNA Pol', screening value, unit not given
# [2] = conc 2.5 (unit not given), 40', DRC-2
# [3] = conc 5 (unit not given), 40', DRC-2
# [4] = conc 10 (unit not given), 40', DRC-2
# [5] = conc 20 (unit not given), 180', DRC-2
# [6] = primary screen hit value, DNA Pol (186 hits)
# P. falciparum apicoplast DNA polymerase (Pf-apPOL), sequence (Q8ILY1 entry or part of it): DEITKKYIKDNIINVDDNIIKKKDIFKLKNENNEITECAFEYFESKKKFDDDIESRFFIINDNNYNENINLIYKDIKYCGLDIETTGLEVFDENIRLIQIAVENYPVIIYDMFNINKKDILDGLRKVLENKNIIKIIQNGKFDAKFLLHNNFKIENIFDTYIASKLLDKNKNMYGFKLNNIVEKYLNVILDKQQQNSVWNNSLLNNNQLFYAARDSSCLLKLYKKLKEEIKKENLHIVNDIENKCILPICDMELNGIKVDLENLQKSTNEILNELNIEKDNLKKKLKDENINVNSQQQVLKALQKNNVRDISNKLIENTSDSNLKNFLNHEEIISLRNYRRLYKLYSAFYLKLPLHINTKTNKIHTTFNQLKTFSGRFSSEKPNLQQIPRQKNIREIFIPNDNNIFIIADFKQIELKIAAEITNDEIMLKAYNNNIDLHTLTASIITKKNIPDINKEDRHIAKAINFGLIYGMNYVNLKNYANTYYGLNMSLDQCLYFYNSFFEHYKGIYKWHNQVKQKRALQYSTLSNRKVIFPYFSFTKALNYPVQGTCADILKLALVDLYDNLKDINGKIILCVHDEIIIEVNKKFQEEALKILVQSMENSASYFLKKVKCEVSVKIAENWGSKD
smiles,measurement,setting,value
"O=C(O)CC1SC(c2ccc3c(c2)OCO3)=NC1=O (stereo not drawn) [Molecule 69, OC(=O)CC1SC(=NC1=O)c1ccc2c(c1)OCO2]",DNA Pol,[1],73
same,% inhibition Apo pol 10',"DRC-1, concentration 2.5",9.093%
same,% inhibition Apo pol 10',"DRC-1, concentration 5",10.6697%
same,% inhibition Apo pol 10',"DRC-1, concentration 10",24.5481%
same,% inhibition Apo pol 10',"DRC-1, concentration 20",37.0336%
same,% inhibition Apo pol 10',"DRC-1, concentration 40",59.8933%
same,% inhibition Apo pol 10',"DRC-1, concentration 80",73.2432%
same,% inhibition Apol 90',"DRC-1, 90', concentration 2.5",0.8612%
same,% inhibition Apol 90',"DRC-1, 90', concentration 5",2.259%
same,% inhibition Apol 90',"DRC-1, 90', concentration 10",10.3106%
same,% inhibition Apol 90',"DRC-1, 90', concentration 20",18.6533%
same,% inhibition Apol 90',"DRC-1, 90', concentration 40",43.3337%
same,% inhibition Apol 90',"DRC-1, 90', concentration 80",58.9692%
same,% inhibition apPOL 180',"DRC-1, 180', concentration 2.5",-4.62%
same,% inhibition apPOL 180',"DRC-1, 180', concentration 5",-4.006%
same,% inhibition apPOL 180',"DRC-1, 180', concentration 10",2.363%
same,% inhibition apPOL 180',"DRC-1, 180', concentration 20",9.6301%
same,% inhibition apPOL 180',"DRC-1, 180', concentration 40",35.5256%
same,% inhibition apPOL 180',"DRC-1, 180', concentration 80",52.4762%
same,% inhibition Apo pol 5',"DRC-2, 5', concentration 2.5",14%
same,% inhibition Apo pol 5',"DRC-2, 5', concentration 5",9%
same,% inhibition Apo pol 5',"DRC-2, 5', concentration 10",20%
same,% inhibition Apo pol 5',"DRC-2, 5', concentration 20",29%
same,% inhibition Apo pol 5',"DRC-2, 5', concentration 40",41%
same,% inhibition Apo pol 5',"DRC-2, 5', concentration 80",49%
same,% inhibition Apol 40',"DRC-2, 40', concentration 2.5",9%
same,% inhibition Apol 40',"DRC-2, 40', concentration 5",7%
same,% inhibition Apol 40',"DRC-2, 40', concentration 10",16%
same,% inhibition Apol 40',"DRC-2, 40', concentration 20",23%
same,% inhibition Apol 40',"DRC-2, 40', concentration 40",37%
same,% inhibition Apol 40',"DRC-2, 40', concentration 80",51%
same,% inhibition ApPOL 90',"DRC-2, 90', concentration 2.5",5.65%
same,% inhibition ApPOL 90',"DRC-2, 90', concentration 5",4%
same,% inhibition ApPOL 90',"DRC-2, 90', concentration 10",10%
same,% inhibition ApPOL 90',"DRC-2, 90', concentration 20",16%
same,% inhibition ApPOL 90',"DRC-2, 90', concentration 40",33%
same,% inhibition ApPOL 90',"DRC-2, 90', concentration 80",50%
same,% inhibition apPOL 180',"DRC-2, 180', concentration 2.5",-0.895%
same,% inhibition apPOL 180',"DRC-2, 180', concentration 5",-1.56%
same,% inhibition apPOL 180',"DRC-2, 180', concentration 10",3%
same,% inhibition apPOL 180',"DRC-2, 180', concentration 20",7%
same,% inhibition apPOL 180',"DRC-2, 180', concentration 40",23%
same,% inhibition apPOL 180',"DRC-2, 180', concentration 80",43%
same,% inhibition Apol 40',[2],9%
same,% inhibition Apo pol 5',"conc 5 (unit not given), 5', DRC-2",9%
same,% inhibition Apol 40',[3],7%
same,% inhibition Apol 40',[4],16%
same,% inhibition Apol 40',"conc 20 (unit not given), 40', DRC-2",23%
same,% inhibition ApPOL 90',"conc 20 (unit not given), 90', DRC-2",16%
same,% inhibition apPOL 180',[5],7%
same,% inhibition apPOL 180',"conc 40 (unit not given), 180', DRC-2",23%
same,DNA Pol,[6],73
O=C(Nc1ncc([N+](=O)[O-])s1)c1ccc2c(c1)C(=O)N(N1C(=O)c3ccccc3C1=O)C2=O [KU0026378],DNA Pol,[1],40
same,% inhibition Apo pol 10',"DRC-1, concentration 2.5",7.75%
same,% inhibition Apo pol 10',"DRC-1, concentration 5",18.061%
same,% inhibition Apo pol 10',"DRC-1, concentration 10",26.4428%
same,% inhibition Apo pol 10',"DRC-1, concentration 20",47.1491%
same,% inhibition Apo pol 10',"DRC-1, concentration 40",69.5136%
same,% inhibition Apo pol 10',"DRC-1, concentration 80",81.7904%
same,% inhibition Apol 90',"DRC-1, 90', concentration 2.5",0.8654%
same,% inhibition Apol 90',"DRC-1, 90', concentration 5",10.2523%
same,% inhibition Apol 90',"DRC-1, 90', concentration 10",17.1111%
same,% inhibition Apol 90',"DRC-1, 90', concentration 20",31.377%
same,% inhibition Apol 90',"DRC-1, 90', concentration 40",49.9666%
same,% inhibition Apol 90',"DRC-1, 90', concentration 80",63.8905%
same,% inhibition apPOL 180',"DRC-1, 180', concentration 2.5",-2.09%
same,% inhibition apPOL 180',"DRC-1, 180', concentration 5",6.201%
same,% inhibition apPOL 180',"DRC-1, 180', concentration 10",13.1954%
same,% inhibition apPOL 180',"DRC-1, 180', concentration 20",24.5599%
same,% inhibition apPOL 180',"DRC-1, 180', concentration 40",40.1737%
same,% inhibition apPOL 180',"DRC-1, 180', concentration 80",53.133%
same,% inhibition Apo pol 5',"DRC-2, 5', concentration 2.5",8%
same,% inhibition Apo pol 5',"DRC-2, 5', concentration 5",8.46%
same,% inhibition Apo pol 5',"DRC-2, 5', concentration 10",25%
same,% inhibition Apo pol 5',"DRC-2, 5', concentration 20",36%
same,% inhibition Apo pol 5',"DRC-2, 5', concentration 40",51%
same,% inhibition Apo pol 5',"DRC-2, 5', concentration 80",55%
same,% inhibition Apol 40',"DRC-2, 40', concentration 2.5",9%
same,% inhibition Apol 40',"DRC-2, 40', concentration 5",9%
same,% inhibition Apol 40',"DRC-2, 40', concentration 10",26%
same,% inhibition Apol 40',"DRC-2, 40', concentration 20",40%
same,% inhibition Apol 40',"DRC-2, 40', concentration 40",62%
same,% inhibition Apol 40',"DRC-2, 40', concentration 80",73%
same,% inhibition ApPOL 90',"DRC-2, 90', concentration 2.5",8%
same,% inhibition ApPOL 90',"DRC-2, 90', concentration 5",9%
same,% inhibition ApPOL 90',"DRC-2, 90', concentration 10",26%
same,% inhibition ApPOL 90',"DRC-2, 90', concentration 20",39%
same,% inhibition ApPOL 90',"DRC-2, 90', concentration 40",63%
same,% inhibition ApPOL 90',"DRC-2, 90', concentration 80",75%
same,% inhibition apPOL 180',"DRC-2, 180', concentration 2.5",6%
same,% inhibition apPOL 180',"DRC-2, 180', concentration 5",9%
same,% inhibition apPOL 180',"DRC-2, 180', concentration 10",24%
same,% inhibition apPOL 180',"DRC-2, 180', concentration 20",36%
same,% inhibition apPOL 180',"DRC-2, 180', concentration 40",59%
same,% inhibition apPOL 180',"DRC-2, 180', concentration 80",74%
same,% inhibition Apo pol 5',"conc 2.5 (unit not given), 5', DRC-2",8%
same,% inhibition Apol 40',[2],9%
same,% inhibition ApPOL 90',"conc 2.5 (unit not given), 90', DRC-2",8%
same,% inhibition Apol 40',[3],9%
same,% inhibition ApPOL 90',"conc 5 (unit not given), 90', DRC-2",9%
same,% inhibition apPOL 180',"conc 5 (unit not given), 180', DRC-2",9%
same,% inhibition Apol 40',[4],26%
same,% inhibition ApPOL 90',"conc 10 (unit not given), 90', DRC-2",26%
same,% inhibition Apo pol 5',"conc 20 (unit not given), 5', DRC-2",36%
same,% inhibition apPOL 180',[5],36%
same,DNA Pol,[6],40
COc1ccc(NC(=O)Cn2nc3c(cc2=O)CCC3)cc1Cl [Molecule 4],IC50,,5.29 µM
Cc1ccc(C)n1-c1ccc(C(=O)NNC(=O)c2ccc3nccnc3c2)cc1 [Molecule 53],IC50,,20.4 µM
